From a melting point compilation (Tetko et al.; mined from patent text by program, amines drawn as free bases though some values may be those of a salt) come the findings set out here.

Bounds are passed on as bounds.

The melting point is the temperature of the solid-liquid transition. `CCc1cnc(C2=NC(C)(C(C)C)C(=O)N2)c(C(=O)NCCCC(=O)OC)c1` (stereo not drawn) yielded a melting point of 132 to 134 °C. In turn, `CCOC(=O)Cc1ccc(-c2nc(COc3ccc(COc4nn(-c5ccccc5)cc4C=O)cc3OC)c(C)o2)cc1` yielded a melting point of 157 to 158 °C. `c1ccc(CSc2nnc(-c3ccc4c(c3)CCO4)o2)cc1` came in with a melting point of 148 to 149 °C. Under `CCOC(=O)CNS(=O)(=O)c1sccc1C=O` stands 74 to 76 °C; under `CC1=c2cc(Br)ccc2=NC1=O`, 119 to 120 °C; under `CSC1C(=O)Nc2c(C(=O)c3ccc(F)cc3)cc(F)cc21` (stereo not drawn), 171 to 172 °C. In turn, `CCCc1nc(C=O)c(C(=O)OCC)n1Cc1ccc(-c2ccccc2C(=O)OC(C)(C)C)cc1` showed a melting point of 117 to 119 °C. `COc1cc2cc(-c3c[nH]c4ccccc34)cnc2cc1OC` showed a melting point of 204 to 206 °C. With `COC(=O)c1cc2c(nc1C(=O)OC)SCC2`, the melting point fell in the range of 102 to 104 °C. As for `COCc1c(C(=O)c2ccccc2)ncc2[nH]c3ccc(O)cc3c12`, the figure is 258 °C. As for `Nc1cc(C(=O)O)cc(OCc2ccsc2)c1-c1ccccc1`, the figure is 139 to 140 °C; as for `COc1cc2c(C=O)c[nH]c2c2c1OCCC2=O`, 236 °C; as for `COc1cc(OC)nc(NC(=O)N=NS(=O)(=O)C2SCC(=O)N2C)n1` (stereo not drawn), 200 to 201 °C.

Turning to `Cn1c(=N)c(F)cn(S(=O)(=O)c2ccccc2)c1=O`, the melting point turned out to be 144 °C. As for `Cc1ccc(-c2csc(NC(=O)c3nnn[nH]3)n2)cc1`, the figure is 250 to 253 °C. As for `CCNC(=O)NCC(CO)c1cccc2ccc(OC)cc12` (stereo not drawn), the figure is 120 to 122 °C; as for `Cc1cc(C2=C(C=O)C(C)(C)CC(C)(C)C2)ccc1F`, 50.5 to 51.5 °C; as for `CC[C@H](C1CC1)n1cc(Cl)nc(N2CCc3cc(OC)c(F)c(Cl)c32)c1=O`, 128 to 130 °C.

`CC[C@@H](c1ccccc1)N(Cc1ccc(C(=O)N2CCC[C@@H]2CO)cc1)S(=O)(=O)c1ccc(Cl)cc1`: the melting point was in the range of 120 to 121 °C. Under `CCc1cccc(C(=O)NN(C(=O)c2cc(C)cc(C)c2)C(C)(C)C)c1C` stands 167 to 169 °C. Under `CCOC(=O)C1C=CC(c2ccccc2)n2c(=O)n(CO)c(=O)n21` (stereo not drawn) stands 129 to 133 °C. As for `O=C1c2cccc(NC(=S)Nc3cnccn3)c2C2CC3(CCN12)SCCS3` (stereo not drawn), the figure is 128 °C.

The compound `CC(O)C(CCCc1ccccc1)n1ncc2c(=O)[nH]c(Cc3ccc(Cl)cc3)nc21` (stereo not drawn) had a melting point of 101 °C. As for `COc1ccc(C2=NNC(=O)CC2)cc1Cl`, the figure is 194 to 195 °C. As for `COC(=O)c1ccc(-c2n[nH]c3c2CCc2nc(C(C)C)c(C(C)C)nc2-3)cc1`, the figure is 204 to 206 °C.

The compound `COc1ccc(C2(c3cccc(CCc4ccccc4)n3)OCCCO2)cc1OC` registered a melting point of 86 to 87 °C. Under `Cc1c(NC(=O)c2ccc(-c3ccc(F)cc3)cc2)ccc2cc(CN3CCC(CCCC(=O)N(C)C)CC3)cnc12` stands 202 to 204 °C; under `Cc1cc(OCc2coc(C=Cc3ccc(SC(F)(F)F)cc3)n2)ccc1COCCn1ccnn1`, 102 °C; under `COC(=O)[C@H]1Cc2c(sc3ccccc23)[C@@H](c2cccc(O)c2)N1`, 283 to 285 °C. As for `Cc1noc(NS(=O)(=O)c2ccccc2-c2ccc(-c3ncco3)cc2Cn2nccn2)c1C`, the figure is 162 to 168 °C. As for `O=c1c(Cc2ccc(-c3ccccc3)cc2)coc2cc(OS(=O)(=O)C(F)(F)F)ccc12`, the figure is 110 °C; as for `CN(C)C(=O)Oc1ccc(Cl)c2c1C(=O)c1ccccc1C2=O`, 182 to 184 °C. For `COc1cc2c(c3c1OC(C)(C)C3)C(c1cccc(-c3ccco3)c1)=NC(C)(C)C2`, the melting point fell in the range of 126 to 128 °C. As for `CCC(=O)OCCc1ccc2c(c1)C(=O)c1ccccc1CO2`, the figure is 71.5 to 73.5 °C; as for `COC(=O)C(C)Oc1ccc(Nc2cc(NC(C)=O)c(F)cc2[N+](=O)[O-])cc1` (stereo not drawn), 126 to 128 °C.

In turn, `Nc1c(-c2c[nH]nn2)c(=O)oc2ccccc12` gave a melting point of 265 to 268 °C. As for `CCC(=O)NC1(c2ccc(C(C)C)cc2OC(=O)CC)C(=O)c2ccccc2C1=O`, the figure is 173 to 175 °C; as for `C[C@@H](NC(=O)c1ccc(-c2ccc(Cl)cc2)cc1)[C@](O)(Cn1cncn1)c1ccc(F)cc1F`, 173 to 174 °C. As for `CCCCCCCCCCCCOCCOc1ccc(C(=O)OC)cc1`, the figure is 40 to 42 °C; as for `Cc1cc(-n2ccnc2)c2cccc(OCc3c(Cl)ccc(S(=O)(=O)N4CCC[C@H]4C(=O)NCCc4cccnc4)c3Cl)c2n1`, 117 °C; as for `c1ccc(C(c2ccccc2)N2CC2)cc1`, 56 to 58 °C. As for `N#CC(NC(=O)c1cccn2c(Cl)cnc12)c1ccco1` (stereo not drawn), the figure is 142 to 143 °C; as for `O=Cc1cc(OCCCC(=O)N(CCO)CCCCC2CCCC2)ccc1[N+](=O)[O-]`, 107 to 108 °C; as for `CN(NC=C1CSc2ccc(Cl)cc2C1=O)C(=O)OC(C)(C)C`, 121 to 124 °C.

`COc1nc(C)nc(NC(=O)NS(=O)(=O)c2ccccc2OCC2(C)OCCO2)n1` registered a melting point of 135 to 136 °C. Under `CCOC(=O)N(c1ccccc1)c1cc(Cl)ccc1N` stands 98 to 101 °C.

`FC(F)(F)c1c[nH]c(-c2cccc(OCC3CO3)c2)n1` (stereo not drawn) had a melting point of 145 to 146 °C. As for `CC(=NNc1nc(Cl)c(-c2c(F)cc(F)cc2F)c(NC(C)C(F)(F)F)n1)C(F)(F)F` (stereo not drawn), the figure is 205 to 207 °C.

`COc1ccc(C[C@H](C[C@H](O)[C@H](Cc2ccccc2)NC(=O)OC(C)(C)C)C(=O)O)c(OC)c1` displayed a melting point of 144 to 145 °C. Under `CC(C)(C)c1ccccc1NC(=O)C(=O)O` stands 111 to 113 °C; under `CCCCc1ccc(OC)c(-c2csc(NC(=O)c3ccc(C(=O)CCN4CCC(NC(C)=O)C4)cc3)n2)c1` (stereo not drawn), 112 °C; under `COC1=C(Cc2ccc(Cl)cc2)C(=O)CC(C)(C)C1`, 62 to 63 °C. As for `COC/C(=N/O)c1ccc(Sc2cc(F)cc(C3(OC)CCOCC3)c2)cc1`, the figure is 155 °C.

Take `CC(C)(C)c1cc(Cl)c(O)c(C=O)c1`: the melting point lay in the range of 75 to 77 °C.

Compound `CN(C(=O)OC(C)(C)C)[C@H](Cc1ccc2ccccc2c1)C(=O)N1CCN(S(C)(=O)=O)C[C@H]1Cc1ccccc1` gave a melting point of 76 to 80 °C.

`COC(=O)c1cc(NC=O)c2cc(Cc3ccc(F)cc3)cnc2c1O` had a melting point of 217 to 219 °C.

The compound `CCCC1=C(C#N)C(c2ccccc2Cl)c2c[nH]nc2N1` (stereo not drawn) yielded a melting point of 248 °C. As for `Nc1cc(C(=O)O)cc(S(N)(=O)=O)c1NCc1ccccc1`, the figure is 218 to 219 °C. As for `CN1CCN(C2=Nc3ccccc3N=C(N3CCN(C)CC3)C2)CC1`, the figure is 227 to 228 °C; as for `N=C(N)c1ccc(C(=O)NCCCC(=O)NCCC(=O)O)cc1`, greater than 250 °C. `O=C(O)CSCC(O)CN1CCCCC1` (stereo not drawn) had a melting point of 152 °C. Under `Cc1[nH]cnc1CSCCNC(=S)NC#N` stands 158 to 161 °C. Under `COc1cccc2c1c(=O)oc(=O)n2C` stands 216 °C; under `CCc1ccc2sc3cc(C#N)ccc3c(=O)c2c1`, 198 to 215 °C. Under `O=C(Nc1ccc(-c2ccc(C(=O)O)cc2)cc1)OCC1c2ccccc2-c2ccccc21` stands 245 to 248 °C; under `COc1ccc2c(=O)nc(-c3ccccn3)sc2c1`, 200 to 202 °C; under `c1ccc(-c2csc(Nc3cc4ccccc4cn3)n2)cc1`, 265 to 267 °C. As to `CCCc1c(CSc2nnc(NC(=O)C(=O)OCC)s2)ccc(C(C)=O)c1O`, the melting point worked out at 189 °C. As for `FC(F)(F)Oc1ccc2nc(NC(=S)Nc3ccccc3)sc2c1`, the figure is 234 °C. Under `CCC(Cn1cncn1)(C(N)=O)c1ccc(Cl)cc1Cl` (stereo not drawn) stands 164 to 165 °C.

Regarding `CCOC(=O)c1cccc(NC(=O)CN2C(=O)c3ccccc3C2=O)c1`, the melting point was found to be 215 °C.

For the compound `CC(=O)OC(C(=O)O)c1c(C(C)C)cc(C(C)C)cc1C(C)C` (stereo not drawn), the melting point fell in the range of 166 to 169 °C. As for `COC(=O)c1cc(NC(=O)C(N)c2ccc3c(c2)C(C)(C)CCC3(C)C)cn1C` (stereo not drawn), the figure is 122 to 124 °C; as for `O=C(c1ccccc1)c1cccc(Cc2c(O)c3ccc(Cl)cc3[nH]c2=O)c1`, 294 to 295 °C. As to `COc1ccc(Cl)cc1C(=O)NCCc1ccc(I)c(S(=O)(=O)N=CN(C)C)c1`, the melting point lay within 183 to 186 °C.

Compound `CON=Cc1ncn2c1[C@@H]1CCCN1C(=O)c1c(Cl)cccc1-2` came in with a melting point of 194 to 195 °C. Under `CCCCOc1ccc(C(C)NC(=O)NO)cc1` (stereo not drawn) stands 125 to 127 °C. As for `CCCCOP(=O)(Cc1cc(C(C)(C)C)c(O)c(C(C)(C)C)c1)Cc1cc(C(C)(C)C)c(O)c(C(C)(C)C)c1`, the figure is 133 to 135 °C; as for `C[Si](C)(C)c1ccc(-c2ccc(I)cc2F)c(F)c1F`, 76 °C; as for `CCOC(=O)c1c(Cl)nc(-c2ccc(N)cc2)c(N)c1C(=O)OCC`, 137 °C.

The compound `O=C1CCC2=C1C(c1ccc(Br)cc1)C1=C(CCS1)N2` (stereo not drawn) showed a melting point of 253 to 256 °C.

For the compound `CS(=O)(=O)c1ccc(C(Cc2ccc(F)cc2)C(=O)Nc2nc3ccc(CO)cc3o2)cc1` (stereo not drawn), the melting point lay within 128 to 130 °C.

`CS(=O)(=O)Cc1ccc(C(=O)c2ccc(Cl)cc2)cc1` displayed a melting point of 164 to 166 °C. Compound `Clc1ccc2nc(Cl)c3ncn(-c4ccccc4Cl)c3c2c1` showed a melting point of 194 to 200 °C. Under `Sc1ccc(OCc2ccccc2)nn1` stands 155 to 157 °C; under `CCCCCCCCCCCCCCCCCCS(=O)(=O)N[C@H]1CCCNC(=O)C1`, 99 to 100 °C; under `CCCC(CCC)C(=O)NC(C)C(=O)OC` (stereo not drawn), 72 to 73 °C. Under `COc1ccc(C(C#Cc2ccccc2)CNC(C)=O)cc1OC1CCCC1` (racemic) stands 114 to 117 °C.
